Some test systems named below: OVCAR-8 ovarian; HT29 colon; SK-MEL-28 melanoma; MALME-3M melanoma; MDA-MB-435; HCT-15 colon; A498 renal; MOLT-4 leukemia; SF-268 CNS; SR leukemia.
What all share (assay): NCI-60 cell line screen, 48 h

We go through twelve compounds from PubChem BioAssay (NCI).

Molecules are shown by their SMILES. “And” between values parts separate entries of the source, which are not always exact repeats. Identical values can stand only once.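 Method: 48-hour compound exposure of cells in 96-well plates, five concentrations, linear interpolation of endpoints. GI50 marks 50% less growth. TGI: concentration producing complete growth inhibition.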 Some results are limits rather than exact numbers.

Regarding `O=c1cc(-c2ccc(Cl)cc2)[nH]c2ncccc12`, the TGI in the experiment with OVCAR-8 ovarian was greater than 100 µM; with HT29 colon, greater than 100 µM; in the experiment on SK-MEL-28 melanoma, greater than 100 µM; in the experiment on MALME-3M melanoma it was greater than 100 µM; in the experiment with MDA-MB-435, 22.4 µM; with HCT-15 colon, greater than 100 µM. Also, the TGI with A498 renal is greater than 100 µM; in the experiment with MOLT-4 leukemia, greater than 100 µM; in the experiment on SF-268 CNS it was greater than 100 µM; with SR leukemia it was 37.5 µM. Further, the GI50 with MDA-MB-435 was 5.96 µM.
Consider `C=C1C(=O)O[C@@H]2C(=O)[C@@H](C)[C@@H]3C=CC(=O)[C@@]3(C)[C@@H](OC(=O)/C(C)=C\C)[C@H]12`, for which the TGI in the experiment with OVCAR-8 ovarian is 12 µM; in the experiment with HT29 colon it was 1.36 µM; with SK-MEL-28 melanoma it was 1.01 µM; in the experiment with MALME-3M melanoma it was 0.948 µM; in the experiment on MDA-MB-435 it was 3.69 µM; with HCT-15 colon it was 2.27 µM. Further, the TGI was 3.44 µM in the experiment with A498 renal, 2.65 µM with MOLT-4 leukemia, 6.22 µM in the experiment on SF-268 CNS and 0.712 µM in the experiment on SR leukemia.
As for `O=C1/C(=C\C(Cl)=C/c2ccc([N+](=O)[O-])cc2)SC(=S)N1CCc1ccc(O)cc1`, the GI50 with OVCAR-8 ovarian is 0.414 µM; in the experiment on HT29 colon, 0.429 µM; in the experiment with SK-MEL-28 melanoma it was 0.626 µM; in the experiment on MALME-3M melanoma, 1.05 µM; in the experiment with MDA-MB-435, 0.552 µM; with HCT-15 colon, 0.246 µM. The GI50 in the experiment with A498 renal is 1.63 µM; in the experiment with MOLT-4 leukemia, 0.352 µM; with SF-268 CNS, 0.831 µM; in the experiment on SR leukemia it was 0.327 µM. Further, the TGI in the experiment on OVCAR-8 ovarian came to 4.2 µM; in the experiment with HT29 colon, 2.28 µM; in the experiment with SK-MEL-28 melanoma, 1.96 µM; with MALME-3M melanoma, 2.48 µM; in the experiment with MDA-MB-435, 1.95 µM; in the experiment on HCT-15 colon it was 0.741 µM. Moreover, the TGI in the experiment with A498 renal is 3.07 µM; in the experiment with MOLT-4 leukemia, greater than 100 µM; in the experiment on SF-268 CNS, 2.77 µM.
With `CCOC(=O)c1c(C)nc2ccc(Cl)cc2c1-c1ccccc1`, the GI50 in the experiment with OVCAR-8 ovarian is 26.7 µM; in the experiment on HT29 colon it was 16.1 µM; in the experiment with SK-MEL-28 melanoma, 19.6 µM; in the experiment on MALME-3M melanoma it was 17.6 µM; with MDA-MB-435, 23.9 µM; in the experiment with HCT-15 colon, 16.9 µM. The GI50 in the experiment with A498 renal is 15.5 µM; in the experiment with MOLT-4 leukemia, 16.3 µM; with SF-268 CNS, 19.3 µM; with SR leukemia, 18.4 µM. Moreover, the TGI is greater than 100 µM in the experiment with OVCAR-8 ovarian; 75.3 µM in the experiment with HT29 colon; 52.4 µM in the experiment with SK-MEL-28 melanoma; 42.3 µM in the experiment on MALME-3M melanoma; 68.4 µM with MDA-MB-435; 44.6 µM in the experiment on HCT-15 colon. The TGI was found to be 33.4 µM in the experiment with A498 renal, 43.4 µM with MOLT-4 leukemia, 44.4 µM with SF-268 CNS and 48.5 µM in the experiment on SR leukemia.
For the compound `Clc1cc(Cl)c(Cl)c(-c2nc(-c3cccnc3)cs2)c1`, the GI50 with OVCAR-8 ovarian is 14.3 µM; in the experiment with HT29 colon, 12.1 µM; in the experiment on SK-MEL-28 melanoma, 12.9 µM; in the experiment on MALME-3M melanoma, 18.8 µM; in the experiment with MDA-MB-435, 3.39 µM; in the experiment on HCT-15 colon it was 16 µM. Besides, the GI50 was 53.9 µM with A498 renal, 39.1 µM in the experiment with MOLT-4 leukemia, 17.9 µM in the experiment with SF-268 CNS and greater than 100 µM in the experiment on SR leukemia. Besides, the TGI is 66.5 µM with OVCAR-8 ovarian; greater than 100 µM in the experiment with HT29 colon; 34.8 µM in the experiment with SK-MEL-28 melanoma; 51.4 µM in the experiment with MALME-3M melanoma; 29.2 µM with MDA-MB-435; 42.5 µM with HCT-15 colon. The TGI is greater than 100 µM with A498 renal, greater than 100 µM in the experiment with MOLT-4 leukemia, 69.8 µM with SF-268 CNS and greater than 100 µM in the experiment with SR leukemia.
Regarding `O=C(O)CC(Nc1ccccc1)C(=O)O` (configuration not stated), the TGI with OVCAR-8 ovarian, in the experiment with HT29 colon, in the experiment with SK-MEL-28 melanoma, in the experiment with MALME-3M melanoma, with MDA-MB-435 and in the experiment with HCT-15 colon was greater than 100 µM in each case. The TGI in the experiment on A498 renal, with MOLT-4 leukemia, in the experiment with SF-268 CNS and in the experiment on SR leukemia was greater than 100 µM throughout.
In the case of `COc1ccc(/C=C2\CN(Cc3cn(CCCNc4ccnc5cc(Cl)ccc45)nn3)C/C(=C\c3ccc(OC)c(OC)c3)C2=O)cc1OC`, the GI50 in the experiment with OVCAR-8 ovarian was 0.81 µM; with HT29 colon, 0.663 µM; in the experiment on SK-MEL-28 melanoma, 2.42 µM; in the experiment with MALME-3M melanoma, 1.75 µM; with MDA-MB-435, 1.12 µM; with HCT-15 colon, 2.03 µM. In addition, the GI50 is 1.17 µM with A498 renal, 1.39 µM in the experiment on MOLT-4 leukemia, 0.743 µM with SF-268 CNS and 0.382 µM in the experiment on SR leukemia. Also, the TGI in the experiment on OVCAR-8 ovarian was 15.4 µM; in the experiment on HT29 colon, 2.38 µM; in the experiment with SK-MEL-28 melanoma, 8.7 µM; with MALME-3M melanoma, 3.54 µM; in the experiment on MDA-MB-435, 5.32 µM; with HCT-15 colon it was 5.02 µM. Also, the TGI amounted to 2.58 µM in the experiment on A498 renal, 6.27 µM in the experiment on MOLT-4 leukemia, 3.09 µM with SF-268 CNS and 12 µM in the experiment with SR leukemia.
`CNNCc1ccc(C(=O)NC(C)C)cc1`: the TGI with OVCAR-8 ovarian, in the experiment with HT29 colon, in the experiment with SK-MEL-28 melanoma, in the experiment on MALME-3M melanoma, in the experiment with MDA-MB-435 and in the experiment with HCT-15 colon was greater than 500 µM throughout. Also, the TGI was greater than 500 µM in the experiment on A498 renal; 426 µM and > 500 µM in the experiment with MOLT-4 leukemia; greater than 500 µM in the experiment on SF-268 CNS; greater than 375 µM with SR leukemia. The GI50 in the experiment with HCT-15 colon and in the experiment on MOLT-4 leukemia was greater than 500 µM throughout.
Take `COc1ccc(-c2nn(-c3cccc(NC(=O)Nc4ccc(Cl)c(C(F)(F)F)c4)c3)cc2-c2ccncc2)cc1Cl`: the GI50 in the experiment with OVCAR-8 ovarian is 2.43 µM; in the experiment with HT29 colon, 3.18 µM; in the experiment with SK-MEL-28 melanoma, 3.08 µM; in the experiment with MALME-3M melanoma, 2.27 µM; in the experiment on MDA-MB-435 it was 2.16 µM; in the experiment on HCT-15 colon, 2.37 µM. For the same compound, the GI50 in the experiment on A498 renal was 2.4 µM; in the experiment on MOLT-4 leukemia it was 2.08 µM; in the experiment with SF-268 CNS it was 4.21 µM; in the experiment with SR leukemia, 1.82 µM. The TGI with OVCAR-8 ovarian is 13.1 µM; in the experiment on HT29 colon, 13.1 µM; in the experiment on SK-MEL-28 melanoma, 13.3 µM; in the experiment on MALME-3M melanoma, 7.58 µM; with MDA-MB-435, 5.92 µM; with HCT-15 colon it was 19.2 µM. In addition, the TGI with A498 renal is 8.01 µM; in the experiment on MOLT-4 leukemia it was 6.74 µM; with SF-268 CNS, 35.9 µM; in the experiment on SR leukemia, 5.65 µM.
Regarding `COc1cc(/C=C/C(=O)c2ccc(Nc3ncnc4ccccc34)cc2)cc(OC)c1`, the GI50 in the experiment on OVCAR-8 ovarian is 3.68 µM; in the experiment with HT29 colon, 2.07 µM; with SK-MEL-28 melanoma, 15.4 µM; with MALME-3M melanoma, 23.8 µM; in the experiment on MDA-MB-435, 1.8 µM; with HCT-15 colon, 7.63 µM. The GI50 is 5.86 µM in the experiment with A498 renal, 2.4 µM with MOLT-4 leukemia, 3.06 µM with SF-268 CNS and 0.556 µM with SR leukemia. Further, the TGI in the experiment on OVCAR-8 ovarian is 17.1 µM; with HT29 colon it was 4.05 µM; with SK-MEL-28 melanoma, 34.4 µM; with MALME-3M melanoma, greater than 100 µM; with MDA-MB-435, 4.14 µM; in the experiment on HCT-15 colon it was 48.7 µM. The TGI in the experiment on A498 renal is greater than 100 µM; in the experiment on MOLT-4 leukemia, 17.1 µM; in the experiment with SF-268 CNS, 12.2 µM; with SR leukemia, 3.17 µM.
In the case of `COc1cc(/C=C2\CN(C)C/C(=C\c3cc(OC)c(OC)c(OC)c3)C2=O)cc(OC)c1OC`, the GI50 with OVCAR-8 ovarian was 0.312 µM; in the experiment with HT29 colon it was 0.214 µM; in the experiment with SK-MEL-28 melanoma, 0.2 µM; in the experiment with MALME-3M melanoma, 0.209 µM; with MDA-MB-435, 0.287 µM; in the experiment on HCT-15 colon, 0.214 µM. Further, the GI50 in the experiment with A498 renal was 0.447 µM; in the experiment on MOLT-4 leukemia, 0.323 µM; in the experiment with SF-268 CNS, 0.346 µM; in the experiment with SR leukemia it was 0.24 µM. Moreover, the TGI with OVCAR-8 ovarian stood at 75.7 µM; with HT29 colon, 0.505 µM; in the experiment with SK-MEL-28 melanoma it was 0.429 µM; with MALME-3M melanoma, 0.435 µM; with MDA-MB-435 it was 1.02 µM; in the experiment with HCT-15 colon it was 0.555 µM. In addition, the TGI in the experiment with A498 renal came out at 1.59 µM; with MOLT-4 leukemia, 4.5 µM; in the experiment on SF-268 CNS, 1.6 µM; with SR leukemia, 1.41 µM.
Consider `C=C1C(=O)O[C@H]2[C@H]1CC/C(COC(=O)CCCCCCCCC(=O)OC/C1=C/CC[C@@]3(C)O[C@H]3[C@H]3OC(=O)C(=C)[C@@H]3CC1)=C\CC[C@@]1(C)O[C@@H]21`, for which the GI50 with OVCAR-8 ovarian was 3.07 µM; in the experiment with HT29 colon, 2.08 µM; in the experiment with SK-MEL-28 melanoma, 2.34 µM; in the experiment with MALME-3M melanoma it was 1.84 µM; in the experiment with MDA-MB-435, 2.02 µM; in the experiment on HCT-15 colon, 1.91 µM. Besides, the GI50 in the experiment with A498 renal is 5.82 µM; in the experiment on MOLT-4 leukemia, 2.58 µM; in the experiment with SF-268 CNS, 1.86 µM; in the experiment on SR leukemia, 1.39 µM. Moreover, the TGI in the experiment with OVCAR-8 ovarian was determined as 8.1 µM; with HT29 colon it was 4.12 µM; with SK-MEL-28 melanoma, 6.04 µM; in the experiment on MALME-3M melanoma, 3.97 µM; in the experiment with MDA-MB-435, 4.59 µM; with HCT-15 colon, 4.47 µM. Also, the TGI came to 18 µM with A498 renal, 13.7 µM in the experiment on MOLT-4 leukemia, 3.84 µM with SF-268 CNS and 11 µM in the experiment with SR leukemia.
